Data reported in article PMC3139667, “A Screen against Leishmania Intracellular Amastigotes: Comparison to a Promastigote Screen and Identification of a Host Cell-Specific Hit” (PLoS Neglected Tropical Diseases, 2011).
Like-named read-outs stand apart in the source and are kept apart here.

How the values were obtained:
[1] = system: L. donovani promastigotes; experiment: Promastigote high-throughput ATP-bioluminescence assay; assay type: cell-based, Leishmania donovani; settings: 72 h at 27°C, CellTiter-Glo, read-out: GI50 Promastigote
Procedure: L. donovani promastigotes from an exponentially growing culture were diluted to 10^6/ml in RPMI containing 10% FBS and 10% BHT. The diluted culture (99 µl/well) was dispensed in sterile 96-well flat white opaque assay plates (Greiner Bio-One) using a WellMate multichannel dispenser (Matrix). 1 µl of 1 mM test compound dissolved in DMSO was added to the plates for a final concentration of 10 µM compound and 1% DMSO. Amphotericin B was added as a positive control (final concentration 2 µM, 1% DMSO) and as a negative control, 1 µl DMSO was added (1% final concentration). Compounds and controls were added to the assay plate with the robotic dispenser Biomek FXp liquid handler (Beckman Coulter). Promastigotes were incubated with the compounds for 72 h at 27°C. The parasites were then lysed by adding 50 µl of CellTiter-Glo (Promega) and placed on an orbital shaker for 5 min at room temperature. After lysis, the resulting ATP-bioluminescence was measured using the Analyst HT plate reader (Molecular Devices). Percentage inhibition of parasite growth was calculated for each well as [1-(RLUx-RLU^+)/(RLU^--RLU^+)]*100 where RLUx, RLU^+ and RLU^- are respectively the Relative Light Units for each well, positive (amphotericin B) and negative (DMSO) controls. A screening window coefficient, denoted Z' factor, was used to evaluate the performance of the assay. The Z' factor, calculated as 1-(3σc++3σc−)/(µc+−µc−) where σc+, σc−, µc+ and µc− are respectively the standard deviation and mean values of positive and negative controls, is reflective of the assay signal dynamic range and the data variation associated with signal measurement. […] GI50 curve fitting was carried out using GraphPad Prism 4 Software (GraphPad Software Inc., San Diego, CA).

[2] = system: L. donovani axenic amastigotes; experiment: Dose response study against axenic amastigotes (CellTiter-Glo); assay type: cell-based, Leishmania donovani; settings: 72 h at 37°C, CellTiter-Glo, read-out: GI50 Axenic amastigote
Procedure: L. donovani axenic amastigotes (5×10^5 cells/ml in axenic amastigote media) were dispensed in sterile 96-well flat white opaque assay plates (Greiner Bio-One) using a WellMate multichannel dispenser (Matrix). […] 1% DMSO and amphotericin B (2 µM, 1% DMSO final concentration) were added as negative and positive controls respectively. Axenic amastigotes were incubated with the compounds for 72 h at 37°C with 5% CO2. Parasite viability was then measured using CellTiter-Glo as described above.

[3] = system: L. donovani intracellular amastigotes; experiment: Intracellular amastigote high-throughput image-based assay in infected THP-1 macrophages; assay type: cell-based, Leishmania donovani; settings: for GI50: L. donovani in THP-1, 72 h, parasites per host cell, read-out: GI50 Intracellular amastigote
Procedure: (§1) Sterile, black, 96-well, clear bottom plates (Greiner Bio-One) were seeded with exponentially growing THP-1 (5×10^5cells/ml). THP-1 were treated with 0.1 µM phorbol myristate acetate (PMA, Sigma) at 37°C for 48 h to achieve differentiation into adherent, non-dividing macrophages. Maturation of THP-1 cells towards monocyte-macrophage like cells is essential to avoid parasitized cells being overgrown by replicating cells. After activation by PMA, cells were washed and incubated with complete RPMI medium containing stationary phase L. donovani promastigotes at a macrophage/promastigote ratio of 1/15. After 4 h incubation at 37°C, non-internalized promastigotes were removed by 2–3 successive washes with RPMI containing 5% FBS and 5% horse serum. Test compounds (10 µM), positive control (2 µM amphotericin B) or negative control (1% DMSO) were then added to the cultures using a Biomek FXp liquid handler (Beckman Coulter). Cultures were incubated at 37°C for 72 h. Cells were then washed with phosphate-buffered saline (PBS), fixed for 30 minutes with 4% formaldehyde, rinsed again with PBS, stained for 2 h with 4′,6′-diamidino-2-phenylindole (DAPI 300 nM) and finally washed with PBS. […] Images were acquired with an INCell Analyzer 1000 automated epi-fluorescent microscope (G.E. Healthcare). The excitation and emission filters used to detect DAPI were 350/50 nm and 460/40 nm respectively. Eight image fields were acquired per well with a 20X objective. The proprietary INCell Developer Toolbox 1.7 software was used for image analysis. Segmentation parameters were set to identify host nuclei with a minimum area of 250 µm^2 and parasite kinetoplast with an average area of 1 µm^2. The intensity of parasite nucleus was too low to be detected with a 20X objective. A border, representing the boundary of the cell, was drawn around the nucleus (total area between 700 and 2000 µm^2). Only parasites found within this area were included in the calculation to eliminate extracellular parasites. False positive parasite detection in the nucleus was also excluded from the calculation. Host cell nuclei and parasite kinetoplasts were counted and the ratio of parasites DNA to host nuclei was selected as the measurement output. Percentage inhibition of parasite growth was calculated as [1-(P/hcx-P/hc^+)/(P/hc^−-P/hc^+)]*100 where P/hcx, P/hc^+ and P/hc^− are parasite per host cell ratio for every well, positive control (amphotericin B) and negative control (DMSO) respectively. Calculation of Z' factor and GI50 curve fitting were carried out as described above.

[4] = system: THP-1; experiment: Host cell toxicity: THP-1 host nuclei counts in the image-based assay; settings: for GI50: read-out: GI50 THP-1; for Selectivity: ratio between parasite GI50 and THP-1 GI50
Procedure: as §1

[5] = Leishmania donovani, THP-1, 72 h
[6] = ratio between promastigote GI50 and intracellular amastigote GI50, >2 more active against intracellular amastigote, <0.4 more active against promastigotes
[7] = PMA-differentiated infected THP-1, 72 h, host nuclei count

| Compound | GI50 ([1]; Leishmania donovani) | GI50 ([2]; Leishmania donovani) | GI50 [3, 5] | Specificity [3, 6] | GI50 ([4]; Homo sapiens, THP-1, 72 h) | Selectivity [4] | GI50 [1] | GI50 [3] | GI50 [4, 7] | GI50 [2] | Specificity [3] |
| --- | --- | --- | --- | --- | --- | --- | --- | --- | --- | --- | --- |
| Cc1c(-c2ccc(O)cc2)n(Cc2ccc(OCCN3CCCCCC3)cc2)c2ccc(O)cc12 [Bazedoxifene] | 6.52 µM | > 16.5 µM |  |  |  |  |  |  |  |  |  |
| Clc1ccccc1C(c1ccccc1)(c1ccccc1)n1ccnc1 [Clotrimazole] | 12.9 µM | 4.56 µM | 1.08 µM | 11.92 | > 16.5 µM | 15.32 |  |  |  |  |  |
| Cc1cc(C2CCCCC2)n(O)c(=O)c1 [Ciclopirox] | 15.2 µM | > 50 µM | 22 µM | 0.69 | 42 µM | 1.90 |  |  |  |  |  |
| COc1cc2nc(N3CCN(C(=O)C4COc5ccccc5O4)CC3)nc(N)c2cc1OC (centres unmarked) [Doxazocin] |  |  |  | 1.69 |  | 3.32 | 8.45 µM | 5 µM | > 16.5 µM | > 16.5 µM |  |
| CCCCCC[C@H]1C(=O)O[C@H](C)[C@H](NC(=O)c2cccc(NC=O)c2O)C(=O)O[C@@H](C)[C@@H]1OC(=O)CC(C)C [Antimycin A] | 0.1 µM | 0.01 µM | 2.15 µM | 0.05 | > 50 µM | 500 |  |  |  |  |  |
| CC[C@@]1(O)C[C@H](O[C@H]2C[C@H](N(C)C)[C@H](O[C@H]3C[C@H](O)[C@H](O[C@H]4CCC(=O)[C@H](C)O4)[C@H](C)O3)[C@H](C)O2)c2c(cc3c(c2O)C(=O)c2c(O)cccc2C3=O)[C@H]1C(=O)OC [Aclacynomycine a1] |  |  |  | 1.57 |  | 5 | 9.15 µM | 5.81 µM | 29.1 µM | > 16.5 µM |  |
| Clc1cc(Cl)c(OCC#CI)cc1Cl [Haloprogin] | 1.05 µM | 0.56 µM | 6 µM | 0.17 | 20 µM | 19.04 |  |  |  |  |  |
| Gramicidin |  |  |  |  |  | 12.19 | 0.68 µM |  | 8.38 µM | 5.76 µM |  |
| CCC(c1ccc(OCCN(CC)CC)cc1)C(CC)c1ccc(OCCN(CC)CC)cc1 (centres unmarked) [4,4′-Diethylaminoethoxyhexestrol] |  |  |  | 3.57 |  | 4.36 | 5 µM | 1.4 µM | 6.11 µM | 10.9 µM |  |
| COCc1c(C(C)C)nc(C(C)C)c(/C=C/[C@@H](O)C[C@@H](O)CC(=O)O)c1-c1ccc(F)cc1 [Cerivastatin] | 10.8 µM | 0.02 µM | > 50 µM | 0.22 | 7.15 µM | 0.66 |  |  |  |  |  |
| CCCCN(CCCC)C(=S)[S-].CCCCN(CCCC)C(=S)[S-].[Zn+2] [Zinc Dibutyldithiocarbamate] |  |  |  |  |  | 5.89 |  |  |  |  | 0.17 |
| CN(C)C(=S)SSC(=S)N(C)C [Thiram] | 4.62 µM | 5.42 µM | 10.4 µM | 0.44 | 1.58 µM | 0.34 |  |  |  |  |  |
| CCN(CCCCOC(=O)c1ccc(OC)c(OC)c1)C(C)Cc1ccc(OC)cc1 (centres unmarked) [Mebeverine] | 6.91 µM | 2.36 µM | 8.5 µM | 0.81 | > 50 µM | 5.88 |  |  |  |  |  |
